PMC11725127 (Acta Pharmaceutica Sinica. B, 2024)

Assays:
[1] = target: ubiquitin-specific protease 2 (USP2) (Homo sapiens, UniProt O75604, C284S); test: thermal stability shift; assay type: cell-based
USP7 = USP7 (Homo sapiens, UniProt Q93009); test: in vitro gel-based GST-UBA52 cleavage assay; assay type: biochemical
[2] = target: ubiquitin-specific protease 2 (USP2) (Homo sapiens, UniProt O75604); test: LC-MS/MS covalent adduct on recombinant USP2; assay type: biochemical
Sequence of ubiquitin-specific protease 2 (USP2) (Homo sapiens, UniProt O75604) (O75604 259-605): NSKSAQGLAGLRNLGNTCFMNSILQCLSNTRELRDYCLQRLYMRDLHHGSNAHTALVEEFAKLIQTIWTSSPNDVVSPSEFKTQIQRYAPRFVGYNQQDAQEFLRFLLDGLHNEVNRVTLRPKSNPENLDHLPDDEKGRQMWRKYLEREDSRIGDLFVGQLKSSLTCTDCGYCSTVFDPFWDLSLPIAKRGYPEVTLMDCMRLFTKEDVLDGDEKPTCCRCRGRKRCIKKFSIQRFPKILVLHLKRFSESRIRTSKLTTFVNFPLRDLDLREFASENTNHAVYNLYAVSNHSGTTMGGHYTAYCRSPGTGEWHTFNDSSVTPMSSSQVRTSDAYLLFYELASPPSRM

Sequence of USP7 (Q93009 whole entry): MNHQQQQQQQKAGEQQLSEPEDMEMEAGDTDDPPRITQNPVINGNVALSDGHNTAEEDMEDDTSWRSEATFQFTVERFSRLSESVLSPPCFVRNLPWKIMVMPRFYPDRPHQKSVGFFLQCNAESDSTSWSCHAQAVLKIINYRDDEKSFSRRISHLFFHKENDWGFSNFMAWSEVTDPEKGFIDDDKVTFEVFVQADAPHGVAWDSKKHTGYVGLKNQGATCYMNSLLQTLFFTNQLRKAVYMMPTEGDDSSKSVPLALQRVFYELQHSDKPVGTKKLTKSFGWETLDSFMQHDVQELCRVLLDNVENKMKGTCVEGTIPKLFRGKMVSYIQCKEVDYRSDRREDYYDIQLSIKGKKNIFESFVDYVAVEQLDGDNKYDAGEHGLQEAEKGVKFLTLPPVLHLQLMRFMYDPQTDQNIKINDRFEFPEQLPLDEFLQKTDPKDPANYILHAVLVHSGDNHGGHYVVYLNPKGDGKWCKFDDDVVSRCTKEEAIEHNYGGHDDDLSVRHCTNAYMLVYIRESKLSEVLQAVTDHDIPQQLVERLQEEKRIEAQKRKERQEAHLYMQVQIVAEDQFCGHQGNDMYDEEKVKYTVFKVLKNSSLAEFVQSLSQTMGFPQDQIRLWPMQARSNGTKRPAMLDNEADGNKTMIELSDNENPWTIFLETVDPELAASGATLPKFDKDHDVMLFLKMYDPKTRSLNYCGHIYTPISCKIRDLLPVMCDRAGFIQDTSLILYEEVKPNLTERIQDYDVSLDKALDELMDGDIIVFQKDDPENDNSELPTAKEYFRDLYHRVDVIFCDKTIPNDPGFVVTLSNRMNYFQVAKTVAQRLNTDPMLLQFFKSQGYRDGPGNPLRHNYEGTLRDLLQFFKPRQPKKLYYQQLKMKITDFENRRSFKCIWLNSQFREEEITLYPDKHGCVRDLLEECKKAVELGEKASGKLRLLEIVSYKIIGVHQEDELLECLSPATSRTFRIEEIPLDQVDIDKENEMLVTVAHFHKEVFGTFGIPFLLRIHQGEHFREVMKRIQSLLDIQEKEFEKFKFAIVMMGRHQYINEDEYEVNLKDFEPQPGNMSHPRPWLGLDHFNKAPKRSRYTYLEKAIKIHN
Sequence of ubiquitin-specific protease 2 (USP2) (Homo sapiens, UniProt O75604, C284S) (O75604 whole entry C284S): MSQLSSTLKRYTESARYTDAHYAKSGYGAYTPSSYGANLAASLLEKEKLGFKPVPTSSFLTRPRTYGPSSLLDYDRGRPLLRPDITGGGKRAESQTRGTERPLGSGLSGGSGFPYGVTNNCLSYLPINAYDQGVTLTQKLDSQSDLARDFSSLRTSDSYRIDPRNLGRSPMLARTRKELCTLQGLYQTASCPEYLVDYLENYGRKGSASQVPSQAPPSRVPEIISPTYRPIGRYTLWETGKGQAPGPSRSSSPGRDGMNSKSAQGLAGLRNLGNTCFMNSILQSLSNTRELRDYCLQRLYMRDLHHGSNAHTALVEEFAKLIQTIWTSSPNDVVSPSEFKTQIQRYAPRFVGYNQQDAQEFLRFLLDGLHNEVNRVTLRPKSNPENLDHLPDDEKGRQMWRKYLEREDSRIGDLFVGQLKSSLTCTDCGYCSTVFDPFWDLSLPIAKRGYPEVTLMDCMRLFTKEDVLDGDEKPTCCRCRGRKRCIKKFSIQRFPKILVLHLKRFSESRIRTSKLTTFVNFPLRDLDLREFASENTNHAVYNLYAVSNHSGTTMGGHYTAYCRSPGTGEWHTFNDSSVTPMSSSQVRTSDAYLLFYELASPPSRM

## CC(C)=CCC[C@]1(C)C=Cc2c(O)c3c(c(CC=C(C)C)c2O1)O[C@]12C(=C[C@@H]4C[C@H]1C(C)(C)O[C@@]2(C/C=C(/C)C(=O)O)C4=O)C3=O [GA, gambogic acid]
[1]
  thermal stability shift (Fig. S15): the thermal stability of USP2^Cys284S could also be altered by GA
USP7
  IC50: 17 µM
[2]
  IC50: 1.8 µM
